Source: ChEMBL document CHEMBL6087472, “Development and Discovery of a Selective Degrader of Casein Kinases 1 δ/ε” (J Med Chem, 2025)
Calls of active or inactive are those of the source. The calls are words filed in the database; no cut-off is given here.

Columns and labels:
[1] = target: T1, von Hippel-Lindau disease tumor suppressor/Casein kinase I isoform delta (Homo sapiens, UniProt P48730+P40337); assay: PROTAC activity at VHL/full length N-terminal Nano-luc fused CK1 delta (unknown origin) transfected in HEK293T cells incubated for 2 hrs followed by substrate addition by NanoBRET target engagement assay; assay type: cell-based
Target sequence in this assay (P40337 whole entry, looked up, the tested form may be a part, canonical isoform): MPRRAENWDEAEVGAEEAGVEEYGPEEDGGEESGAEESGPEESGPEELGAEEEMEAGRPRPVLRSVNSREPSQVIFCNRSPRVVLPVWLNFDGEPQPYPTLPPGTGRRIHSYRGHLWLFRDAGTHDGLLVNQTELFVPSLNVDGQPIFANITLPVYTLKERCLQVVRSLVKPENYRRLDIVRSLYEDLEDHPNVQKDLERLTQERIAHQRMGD
Target sequence in this assay (P48730 whole entry, looked up, the tested form may be a part, canonical isoform): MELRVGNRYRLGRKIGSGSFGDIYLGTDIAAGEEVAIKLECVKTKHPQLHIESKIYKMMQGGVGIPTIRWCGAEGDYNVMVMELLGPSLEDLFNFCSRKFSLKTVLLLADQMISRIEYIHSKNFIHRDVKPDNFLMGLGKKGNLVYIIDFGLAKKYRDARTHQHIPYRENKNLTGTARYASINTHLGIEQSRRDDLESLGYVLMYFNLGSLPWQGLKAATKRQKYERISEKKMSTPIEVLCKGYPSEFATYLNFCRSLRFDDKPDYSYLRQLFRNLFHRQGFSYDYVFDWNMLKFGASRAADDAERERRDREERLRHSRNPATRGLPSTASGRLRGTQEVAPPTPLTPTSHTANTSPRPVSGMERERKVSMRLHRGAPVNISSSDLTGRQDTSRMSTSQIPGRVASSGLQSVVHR

[2] = target: T1, von Hippel-Lindau disease tumor suppressor/Casein kinase I isoform delta; assay: PROTAC activity at VHL/Hibit-fused CK1 delta in human MV4-11 cells assessed as degradation of CK1-delta incubated for 6 hrs by Nano-Glo HiBiT assay relative to control; assay type: cell-based
Target sequence in this assay (P40337 whole entry, looked up, the tested form may be a part, canonical isoform): as the sequence (P40337 whole entry, looked up, the tested form may be a part, canonical isoform) above
Target sequence in this assay (P48730 whole entry, looked up, the tested form may be a part, canonical isoform): as the sequence (P48730 whole entry, looked up, the tested form may be a part, canonical isoform) above

[3] = target: T2, von Hippel-Lindau disease tumor suppressor/Casein kinase I isoform alpha (Homo sapiens) (UniProt P48729+P40337); assay: PROTAC activity at VHL/Hibit-fused CK1 alpha in human MV4-11 cells assessed as degradation of CK1-alpha incubated for 6 hrs by Nano-Glo HiBiT assay relative to control; assay type: cell-based
[4] = target: Cereblon/Casein kinase I alpha (Homo sapiens) (UniProt P48729+Q96SW2); assay: PROTAC activity at CRBN/Hibit-fused CK1 alpha in human MV4-11 cells assessed as degradation of CK1-alpha incubated for 6 hrs by Nano-Glo HiBiT assay relative to control; assay type: cell-based
[5] = target: T3, Protein cereblon/Casein kinase I isoform delta (Homo sapiens, UniProt P48730+Q96SW2); assay: PROTAC activity at CRBN/Hibit-fused CK1 delta in human MV4-11 cells assessed as degradation of CK1-delta incubated for 6 hrs by Nano-Glo HiBiT assay relative to control; assay type: cell-based
Target sequence in this assay (P48730 whole entry, looked up, the tested form may be a part, canonical isoform): as above
Target sequence in this assay (Q96SW2 whole entry, looked up, the tested form may be a part, canonical isoform): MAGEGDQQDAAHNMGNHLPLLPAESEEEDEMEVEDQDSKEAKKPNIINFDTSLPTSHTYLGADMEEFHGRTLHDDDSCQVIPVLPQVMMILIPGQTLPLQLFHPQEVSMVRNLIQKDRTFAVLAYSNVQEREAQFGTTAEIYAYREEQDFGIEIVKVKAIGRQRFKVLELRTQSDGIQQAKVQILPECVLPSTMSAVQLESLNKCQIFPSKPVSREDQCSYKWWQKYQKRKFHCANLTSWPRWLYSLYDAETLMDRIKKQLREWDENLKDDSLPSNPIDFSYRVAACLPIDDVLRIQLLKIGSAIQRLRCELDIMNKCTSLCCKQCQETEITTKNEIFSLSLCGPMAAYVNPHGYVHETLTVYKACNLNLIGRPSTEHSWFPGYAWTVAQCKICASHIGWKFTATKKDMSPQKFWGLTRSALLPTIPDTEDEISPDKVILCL

[6] = target: T3, Protein cereblon/Casein kinase I isoform delta; assay: PROTAC activity at CRBN/full length N-terminal Nano-luc fused CK1 delta (unknown origin) transfected in HEK293T cells incubated for 2 hrs followed by substrate addition by NanoBRET target engagement assay; assay type: cell-based
Target sequence in this assay (P48730 whole entry, the tested form may be a part, canonical isoform): as the sequence (P48730 whole entry, looked up, the tested form may be a part, canonical isoform) above
Target sequence in this assay (Q96SW2 whole entry, the tested form may be a part, canonical isoform): as the sequence (Q96SW2 whole entry, looked up, the tested form may be a part, canonical isoform) above

[7] = target: T3, Protein cereblon/Casein kinase I isoform delta; assay: PROTAC activity at CRBN/Hibit-fused CK1 delta in human MV4-11 cells assessed as degradation of CK1-delta at 10 nM incubated for 6 hrs by Nano-Glo HiBiT assay; assay type: cell-based
Target sequence in this assay (P48730 whole entry, looked up, the tested form may be a part, canonical isoform): as the sequence (P48730 whole entry, looked up, the tested form may be a part, canonical isoform) above
Target sequence in this assay (Q96SW2 whole entry, looked up, the tested form may be a part, canonical isoform): as the sequence (Q96SW2 whole entry, looked up, the tested form may be a part, canonical isoform) above

[8] = target: T1, von Hippel-Lindau disease tumor suppressor/Casein kinase I isoform delta; assay: PROTAC activity at VHL/CK1 delta in HEK293 cells assessed as induction of degradation of CK1 delta by measuring maximum efficacy at 5 to 10 uM measured after 6 hrs by Western blot analysis relative to control; assay type: cell-based; details: dose 5-10 µM
Target sequence in this assay (P40337 whole entry, looked up, the tested form may be a part, canonical isoform): as the sequence (P40337 whole entry, looked up, the tested form may be a part, canonical isoform) above
Target sequence in this assay (P48730 whole entry, looked up, the tested form may be a part, canonical isoform): as the sequence (P48730 whole entry, looked up, the tested form may be a part, canonical isoform) above

[9] = target: T4, von Hippel-Lindau disease tumor suppressor/Casein kinase I isoform epsilon (Homo sapiens) (UniProt P49674+P40337); assay: PROTAC activity at VHL/CK1 epsilon in HEK293 cells assessed as induction of degradation of CK1 epsilon by measuring maximum efficacy at 5 to 10 uM measured after 6 hrs by Western blot analysis relative to control; assay type: cell-based; details: dose 5-10 µM
[10] = target: T2, von Hippel-Lindau disease tumor suppressor/Casein kinase I isoform alpha (Homo sapiens); assay: PROTAC activity at VHL/CK1 alpha in HEK293 cells assessed as induction of degradation of CK1 alpha by measuring maximum efficacy at 5 to 10 uM measured after 6 hrs by Western blot analysis relative to control; assay type: cell-based; details: dose 5-10 µM
[11] = target: T1, von Hippel-Lindau disease tumor suppressor/Casein kinase I isoform delta; assay: PROTAC activity at VHL/Hibit-fused CK1 delta in human MV4-11 cells assessed as degradation of CK1-delta incubated for 6 hrs by Nano-Glo HiBiT assay; assay type: cell-based
MV4-11 [12] = assay: Cytotoxicity in human MV4-11 cells at <5 uM measured after 60 hrs by alamar blue assay; assay type: functional, cell-based
[13] = Bioavailability in mouse; assay type: ADME, organism-based; details: in vivo
[14] = target: T5, Casein kinase I isoform epsilon (Homo sapiens, UniProt P49674); assay: Inhibition of CK1 epsilon (unknown origin)
MV4-11 [15] = assay: Cytotoxicity in human MV4-11 cells at 10 uM measured after 72 hrs by alamar blue assay; assay type: functional, cell-based
[16] = target: T1, von Hippel-Lindau disease tumor suppressor/Casein kinase I isoform delta; assay: PROTAC activity at VHL/CK1 delta in HEK293 cells assessed as induction of degradation of CK1 delta by Western blot analysis; assay type: cell-based
[17] = target: T4, von Hippel-Lindau disease tumor suppressor/Casein kinase I isoform epsilon (Homo sapiens); assay: PROTAC activity at VHL/CK1 epsilon in HEK293 cells assessed as dephosphorylation of DVL3 at high concentration pretreated with LGK974 followed by compound addition and measured after 6 hrs by Western blot analysis; assay type: cell-based
[18] = target: T4, von Hippel-Lindau disease tumor suppressor/Casein kinase I isoform epsilon (Homo sapiens); assay: PROTAC activity at VHL/CK1 epsilon in HEK293 cells assessed as induction of degradation of CK1 epsilon at 0.01 to 30 uM by Western blot analysis; assay type: cell-based; details: dose 0.01-30 µM
[19] = target: T2, von Hippel-Lindau disease tumor suppressor/Casein kinase I isoform alpha (Homo sapiens); assay: PROTAC activity at VHL/CK1 alpha in HEK293 cells assessed as induction of degradation of CK1 alpha at >10 uM by Western blot analysis; assay type: cell-based
[20] = target: T1, von Hippel-Lindau disease tumor suppressor/Casein kinase I isoform delta; assay: PROTAC activity at VHL/CK1 delta in HEK293 cells assessed as dephosphorylation of DVL3 at high concentration pretreated with LGK974 followed by compound addition and measured after 6 hrs by Western blot analysis; assay type: cell-based
Target sequence in this assay (P40337 whole entry, looked up, the tested form may be a part, canonical isoform): as the sequence (P40337 whole entry, looked up, the tested form may be a part, canonical isoform) above
Target sequence in this assay (P48730 whole entry, looked up, the tested form may be a part, canonical isoform): as the sequence (P48730 whole entry, looked up, the tested form may be a part, canonical isoform) above

[21] = target: T1, von Hippel-Lindau disease tumor suppressor/Casein kinase I isoform delta; assay: PROTAC activity at VHL/CK1 delta in HEK293 cells assessed as induction of degradation of CK1 delta at upto 20 uM pretreated with LGK974 followed by compound addition and measured after 6 hrs by Western blot analysis; assay type: cell-based
Target sequence in this assay (P40337 whole entry, looked up, the tested form may be a part, canonical isoform): as the sequence (P40337 whole entry, looked up, the tested form may be a part, canonical isoform) above
Target sequence in this assay (P48730 whole entry, looked up, the tested form may be a part, canonical isoform): as the sequence (P48730 whole entry, looked up, the tested form may be a part, canonical isoform) above

[22] = target: T4, von Hippel-Lindau disease tumor suppressor/Casein kinase I isoform epsilon (Homo sapiens); assay: PROTAC activity at VHL/CK1 epsilon in HEK293 cells assessed as induction of degradation of CK1 epsilon at upto 20 uM pretreated with LGK974 followed by compound addition and measured after 6 hrs by Western blot analysis; assay type: cell-based
[23] = target: Casein kinase I isoform delta (Homo sapiens) (UniProt P48730); assay: Inhibition of CK1 delta in HEK293 cells at 5 to 10 uM measured after 6 hrs by Western blot analysis; assay type: cell-based; details: dose 5-10 µM
[24] = target: T5, Casein kinase I isoform epsilon; assay: Inhibition of CK1 epsilon in HEK293 cells at 5 to 10 uM measured after 6 hrs by Western blot analysis; assay type: cell-based; details: dose 5-10 µM

T2 sequence (P40337 whole entry, looked up, the tested form may be a part, canonical isoform): as the sequence (P40337 whole entry, looked up, the tested form may be a part, canonical isoform) above
T2 sequence (P48729 whole entry, looked up, the tested form may be a part, canonical isoform): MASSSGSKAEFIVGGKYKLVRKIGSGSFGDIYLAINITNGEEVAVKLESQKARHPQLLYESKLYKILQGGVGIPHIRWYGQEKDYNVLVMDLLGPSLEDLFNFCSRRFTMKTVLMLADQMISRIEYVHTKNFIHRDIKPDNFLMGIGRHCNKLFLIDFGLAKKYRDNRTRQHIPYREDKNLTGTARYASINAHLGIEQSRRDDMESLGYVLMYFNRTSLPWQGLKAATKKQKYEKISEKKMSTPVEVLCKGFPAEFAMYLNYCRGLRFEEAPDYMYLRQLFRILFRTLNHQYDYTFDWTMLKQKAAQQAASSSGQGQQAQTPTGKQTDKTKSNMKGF
T4 sequence (P40337 whole entry, looked up, canonical isoform): as the sequence (P40337 whole entry, looked up, the tested form may be a part, canonical isoform) above
T4 sequence (P49674 whole entry, looked up, canonical isoform): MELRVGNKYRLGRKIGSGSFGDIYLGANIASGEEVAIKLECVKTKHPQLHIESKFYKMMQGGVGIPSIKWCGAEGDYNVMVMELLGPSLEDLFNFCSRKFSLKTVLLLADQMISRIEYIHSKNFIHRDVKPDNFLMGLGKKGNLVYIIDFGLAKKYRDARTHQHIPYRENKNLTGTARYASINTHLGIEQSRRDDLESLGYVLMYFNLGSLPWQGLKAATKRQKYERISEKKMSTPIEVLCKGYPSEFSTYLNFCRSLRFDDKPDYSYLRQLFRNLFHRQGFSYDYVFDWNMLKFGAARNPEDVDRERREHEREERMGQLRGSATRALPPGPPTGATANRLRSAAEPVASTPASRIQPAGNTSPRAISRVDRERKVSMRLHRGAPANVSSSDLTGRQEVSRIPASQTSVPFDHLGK
Cereblon/Casein kinase I alpha (Homo sapiens), sequence (P48729 2-337 limits assumed): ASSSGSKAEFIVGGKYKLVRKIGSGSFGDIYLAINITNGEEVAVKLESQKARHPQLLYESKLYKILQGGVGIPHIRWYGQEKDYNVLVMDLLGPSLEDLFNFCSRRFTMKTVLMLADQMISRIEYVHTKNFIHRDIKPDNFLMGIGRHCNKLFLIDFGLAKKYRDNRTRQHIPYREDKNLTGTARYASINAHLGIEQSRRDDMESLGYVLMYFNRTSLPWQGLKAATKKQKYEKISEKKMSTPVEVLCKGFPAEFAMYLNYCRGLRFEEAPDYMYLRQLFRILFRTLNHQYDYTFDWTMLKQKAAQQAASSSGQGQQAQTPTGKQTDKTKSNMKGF
Cereblon/Casein kinase I alpha (Homo sapiens), sequence (Q96SW2 whole entry partner, the tested form may be a part, canonical isoform): as the sequence (Q96SW2 whole entry, looked up, the tested form may be a part, canonical isoform) above

SMILES	Emax [1] [%]	Emax [2] [%]	Emax [3] [%]	Emax [4] [%]	Emax [5] [%]	EC50 [6] [nM]	other results
Cc1ncsc1-c1ccc(CNC(=O)[C@@H]2C[C@@H](O)CN2C(=O)[C@@H](NC(=O)CC2CN(C(=O)CCOCCOCCN3CCC(F)(Cn4cnc(-c5ccc(F)cn5)c4-c4ccnc5[nH]ccc45)CC3)C2)C(C)(C)C)cc1	6.3	< 10	< 10	–	–	–	–
O=C(COc1cccc2c1C(=O)N(C1CCC(=O)NC1=O)C2=O)NCc1ccc(CC(=O)N2CCC(F)(Cn3cnc(-c4ccc(F)cn4)c3-c3ccnc4[nH]ccc34)CC2)cc1 (stereo unspecified)	–	–	–	19.7	14.8	4.6	–
O=C1CCC(N2C(=O)c3cccc(NCCCCCC(=O)N4CCC(F)(Cn5cnc(-c6ccc(F)cn6)c5-c5ccnc6[nH]ccc56)CC4)c3C2=O)C(=O)N1 (stereo unspecified)	–	–	–	< 10	35	4.3	Activity [7]: Active
Cc1ncsc1-c1ccc(CNC(=O)[C@@H]2C[C@@H](O)CN2C(=O)[C@@H](NC(=O)CCOCCOCCN2CCC(F)(Cn3cnc(-c4ccc(F)cn4)c3-c3ccnc4[nH]ccc34)CC2)C(C)(C)C)cc1	1.8	50.8	17.3	–	–	–	Emax [8]: > 50%; Emax [9]: > 50%; Emax [10]: > 50%; DC50 [11]: 9270 nM
CN1CCC(F)(Cn2cnc(-c3ccc(F)cn3)c2-c2ccnc3[nH]ccc23)CC1	–	–	–	–	–	–	Activity (MV4-11 [12]): Active; bioavailability [13]: 0.57%; IC50 [14]: 27.7 nM
Cc1ncsc1-c1ccc(CNC(=O)[C@@H]2C[C@@H](O)CN2C(=O)[C@@H](NC(=O)CC2CCN(C(=O)CN3CCC(F)(Cn4cnc(-c5ccc(F)cn5)c4-c4ccnc5[nH]ccc45)CC3)CC2)C(C)(C)C)cc1	2	29.1	< 10	–	–	–	–
O=C(CCOCCOCCOCCN1CCC(F)(Cn2cnc(-c3ccc(F)cn3)c2-c2ccnc3[nH]ccc23)CC1)NCCNc1cccc2c1C(=O)N(C1CCC(=O)NC1=O)C2=O (stereo unspecified)	–	–	–	20.2	36	7.7	Activity [7]: Active
Cc1ncsc1-c1ccc(CNC(=O)[C@@H]2C[C@@H](O)CN2C(=O)[C@@H](NC(=O)CC2CN(C(=O)CCOCCOCCOCCN3CCC(F)(Cn4cnc(-c5ccc(F)cn5)c4-c4ccnc5[nH]ccc45)CC3)C2)C(C)(C)C)cc1	6.4	< 10	< 10	–	–	–	–
Cc1ncsc1-c1ccc(CNC(=O)[C@@H]2C[C@@H](O)CN2C(=O)[C@@H](NC(=O)CCOCCOCCOCCOCCN2CCC(F)(Cn3cnc(-c4ccc(F)cn4)c3-c3ccnc4[nH]ccc34)CC2)C(C)(C)C)cc1	2.8	< 10	< 10	–	–	–	–
Cc1ncsc1-c1ccc(CNC(=O)[C@@H]2C[C@@H](O)CN2C(=O)[C@@H](NC(=O)CCOCCOCCOCCN2CCC(F)(Cn3cnc(-c4ccc(F)cn4)c3-c3ccnc4[nH]ccc34)CC2)C(C)(C)C)cc1	4.3	35	35.9	–	–	–	Activity (MV4-11 [12]): Active
Cc1ncsc1-c1ccc(CNC(=O)[C@@H]2C[C@H](O)CN2C(=O)[C@@H](NC(=O)CCCCCCC(=O)N2CCC(F)(Cn3cnc(-c4ccc(F)cn4)c3-c3ccnc4[nH]ccc34)CC2)C(C)(C)C)cc1	2.4	< 10	< 10	–	–	–	Activity (MV4-11 [15]): Active; Compound Showed Milder Cytotoxic Effect; DC50 [16]: 200 nM; Activity [17]: Active; Activity [18]: Weak_effect; Activity [19]: Weak_effect; Activity [20]: Active; Activity [21]: inactive; Activity [22]: inactive
O=C1CCC(N2C(=O)c3cccc(NCc4ccc(CC(=O)N5CCC(F)(Cn6cnc(-c7ccc(F)cn7)c6-c6ccnc7[nH]ccc67)CC5)cc4)c3C2=O)C(=O)N1 (stereo unspecified)	–	–	–	< 10	14.4	9.2	–
Cc1ncsc1-c1ccc(CNC(=O)[C@@H]2C[C@@H](O)CN2C(=O)[C@@H](NC(=O)CC2CN(C(=O)CN3CCC(F)(Cn4cnc(-c5ccc(F)cn5)c4-c4ccnc5[nH]ccc45)CC3)C2)C(C)(C)C)cc1	2.4	21.7	< 10	–	–	–	–
O=C1CCC(N2C(=O)c3cccc(NCCOCCOCCOCCC(=O)N4CCC(F)(Cn5cnc(-c6ccc(F)cn6)c5-c5ccnc6[nH]ccc56)CC4)c3C2=O)C(=O)N1 (stereo unspecified)	–	–	–	16.1	34.4	467	–
O=C(CCOCCOCCOCCOCCN1CCC(F)(Cn2cnc(-c3ccc(F)cn3)c2-c2ccnc3[nH]ccc23)CC1)NCCNc1cccc2c1C(=O)N(C1CCC(=O)NC1=O)C2=O (stereo unspecified)	–	–	–	11.3	40.2	11.2	Activity [7]: Active
Cc1ncsc1-c1ccc(CNC(=O)[C@@H]2C[C@@H](O)CN2C(=O)[C@@H](NC(=O)Cc2ccc(CNC(=O)CN3CCC(F)(Cn4cnc(-c5ccc(F)cn5)c4-c4ccnc5[nH]ccc45)CC3)cc2)C(C)(C)C)cc1	0.5	19.1	< 10	–	–	–	–
O=C(COc1cccc2c1C(=O)N(C1CCC(=O)NC1=O)C2=O)NCCOCCOCCOCCC(=O)N1CCC(F)(Cn2cnc(-c3ccc(F)cn3)c2-c2ccnc3[nH]ccc23)CC1 (stereo unspecified)	–	–	–	12.6	< 10	16	–
Cc1ncsc1-c1ccc(CNC(=O)[C@@H]2C[C@@H](O)CN2C(=O)[C@@H](NC(=O)CC2CCN(C(=O)CCOCCOCCOCCN3CCC(F)(Cn4cnc(-c5ccc(F)cn5)c4-c4ccnc5[nH]ccc45)CC3)CC2)C(C)(C)C)cc1	3.2	< 10	< 10	–	–	–	–
O=C1CCC(N2C(=O)c3cccc(OCCCCCCN4CCC(F)(Cn5cnc(-c6ccc(F)cn6)c5-c5ccnc6[nH]ccc56)CC4)c3C2=O)C(=O)N1 (stereo unspecified)	–	–	–	–	15	1.5	inhibition [23]: Active; inhibition [24]: Active
O=C(CCOCCOCCN1CCC(F)(Cn2cnc(-c3ccc(F)cn3)c2-c2ccnc3[nH]ccc23)CC1)NCCNc1cccc2c1C(=O)N(C1CCC(=O)NC1=O)C2=O (stereo unspecified)	–	–	–	25	36.4	9.3	Activity [7]: Active
O=C(COc1cccc2c1C(=O)N(C1CCC(=O)NC1=O)C2=O)NCCCCCC(=O)N1CCC(F)(Cn2cnc(-c3ccc(F)cn3)c2-c2ccnc3[nH]ccc23)CC1 (stereo unspecified)	–	–	–	< 10	18.2	9.3	–
